Measured values as given in ChEMBL document CHEMBL3112396, “Synthesis of aminoalkyl-substituted coumarin derivatives as acetylcholinesterase inhibitors” (Bioorg Med Chem, 2014).
The source made the active and inactive calls. The rule behind the calls is not given here.

Key:
[1] = target: T1, Acetylcholinesterase (Mus musculus, UniProt P21836); assay: Inhibition of ICR mouse brain AChE using acetylthiocholine iodide as substrate incubated 10 mins prior to substrate addition measured after 10 mins by Ellman's method
T1 sequence (P21836 whole entry): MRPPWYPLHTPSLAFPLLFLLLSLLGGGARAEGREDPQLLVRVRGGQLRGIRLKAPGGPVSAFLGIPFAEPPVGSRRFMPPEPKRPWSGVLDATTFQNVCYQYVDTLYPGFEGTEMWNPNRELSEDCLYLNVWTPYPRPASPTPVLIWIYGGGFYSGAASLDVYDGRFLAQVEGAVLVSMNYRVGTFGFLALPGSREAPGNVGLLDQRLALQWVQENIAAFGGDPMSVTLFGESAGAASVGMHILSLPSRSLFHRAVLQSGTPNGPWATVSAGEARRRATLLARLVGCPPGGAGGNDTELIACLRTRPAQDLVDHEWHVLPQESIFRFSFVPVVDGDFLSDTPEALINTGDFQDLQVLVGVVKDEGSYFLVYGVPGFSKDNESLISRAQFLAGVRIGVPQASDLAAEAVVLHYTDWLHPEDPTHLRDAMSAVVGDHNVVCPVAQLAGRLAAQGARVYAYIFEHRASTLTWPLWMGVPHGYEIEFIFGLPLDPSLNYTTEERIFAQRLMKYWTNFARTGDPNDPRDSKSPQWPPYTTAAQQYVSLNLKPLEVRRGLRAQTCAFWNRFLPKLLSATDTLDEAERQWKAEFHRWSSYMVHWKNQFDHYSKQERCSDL

[2] = tested on: Mus musculus; assay: Memory enhancing effect in ICR mouse assessed as reversal of scopolamine-induced amnesia by measuring step-through latencies at 0.25 to 5 mg/kg, po administered 1 hr prior to acquisition trial measured after 24 hrs by passive avoidance test; type: functional, organism-based
[3] = tested on: Mus musculus; assay: Memory enhancing effect in ICR mouse assessed as reversal of scopolamine-induced amnesia by measuring step-through latencies at 1 mg/kg, po administered 1 hr prior to acquisition trial measured after 24 hrs by passive avoidance test relative to control; type: functional, organism-based; design: dose 1 mg/kg
[4] = tested on: Mus musculus; assay: Memory enhancing effect in ICR mouse assessed as reversal of scopolamine-induced amnesia by measuring step-through latencies at 0.5 to 5 mg/kg, po after 1 hr by passive avoidance test; type: functional, organism-based
[5] = tested on: Mus musculus; assay: Memory enhancing effect in ICR mouse assessed as reversal of scopolamine-induced amnesia by measuring step-through latencies at 2 mg/kg, po administered 1 hr prior to acquisition trial measured after 24 hrs by passive avoidance test relative to control; type: functional, organism-based; design: dose 2 mg/kg

CCN(CC)CCCOc1cc2ccc(=O)oc2cc1O
IC50 [1]: 30.5 µM

O=c1ccc2cc(OCCCN3CCCCC3)c(O)cc2o1
IC50 [1]: 19.1 µM

O=c1ccc2cc(OCCCN3CCCC3)c(O)cc2o1
IC50 [1]: 2.87 µM
Activity [2]: Active
Activity [3]: Active
Activity [4]: inactive

COc1cc2ccc(=O)oc2cc1O [SCOPOLETIN]
IC50 [1]: 476 µM

O=c1ccc2cc(OCCN3CCCCC3)c(O)cc2o1
IC50 [1]: 12.2 µM

O=c1ccc2cc(OCCN3CCCC3)c(O)cc2o1
IC50 [1]: 6.85 µM
Activity [2]: Active
Activity [4]: inactive
Activity [5]: Active

CCN(CC)CCOc1cc2ccc(=O)oc2cc1O
IC50 [1]: 18.7 µM

COc1ccc2c3c1O[C@H]1C[C@@H](O)C=C[C@@]31CCN(C)C2
Activity [3]: Active

CC(C)NCCCOc1cc2ccc(=O)oc2cc1O
IC50 [1]: 27 µM
